In series [1] the test system is human breast cancer cell line MCF-7. Put plainly: Antitumor effects, cell viability (XTT method). In kind it is cell-based. To be noted: FIG. 9. The protocol:
(§1) The antitumor effects of the chelating agents of test groups 1 to 10 on each of human lung cancer cell line A549, human liver cancer cell line PLC, and human colon adenocarcinoma cell line HCT116 were confirmed. A549 cells or PLC cells were seeded at 3000 cells/well, and HCT116 cells were seeded at 6000 cells/well. After 24 hours, the fetal bovine serum (FBS) concentration was changed from 10% to 1%, each compound of the test groups 1 to 10 was introduced into medium. Cell viability was confirmed after 48 hours by the Trypan blue method, or, cell viability was confirmed after 48 hours by performing medium exchange and then after 24 hours by performing the XTT method. Deferoxamine mesylate (Desferal (Trademark)) was used as a positive control. Results are as depicted in FIGS. 1A, 1B, 2 and 3.
(§2) Moreover, similarly to the above experiment on antitumor effects, the antitumor effects of the chelating agent of test group 6 or 10 on each of human breast cancer cell line MCF-7 and human oral squamous cell carcinoma HSC-2 were confirmed.

In series [2] the test system is human oral squamous cell carcinoma HSC-2. Kind of series: Antitumor effects, cell viability (XTT method). To be noted: FIG. 10. The format is cell-based. The protocol:
as §1, §2
In general terms: Formazan colour is commonly taken as a measure of viable cells.

Series [3] has as its system HSC-2 cells. Put plainly: Apoptosis induction, TUNEL staining. The format is cell-based, human. To be noted: 50 μg/mL, 48 hours, FIG. 11A. The protocol:
(§3) Furthermore, the apoptosis-inducing effects of the chelating agents of test groups 6 and 10 on tumors were confirmed. First, 100 μg/mL of the chelating agent of test group 6 or 50 μg/mL of the chelating agent of test group 10 was added to HSC-2 cells in a culture solution. After 48 hours of reaction, TUNEL Assay was carried out. Specifically, apoptosis induction was evaluated by the TUNEL staining method using a MK500 in situ Apoptosis Detection Kit (Takara Bio Inc.).

Another series concerns HCT116 cells. Put plainly: Apoptosis induction, TUNEL staining. In kind it is cell-based, human. To be noted: 6.5 µg/mL, 48 hours, FIG. 11B. As for the experimental part:
as §3
Similarly, the apoptosis-inducing effects of the chelating agent of test group 6 or 10 on HCT116 cells were confirmed. 10 μg/mL of the chelating agent of test group 6 was added and 6.5 µg/mL of the chelating agent of test group 10 was added to the cells. After 48 hours of reaction, TUNEL staining was carried out similarly to the above.

The test system of series [4] is A549 cells. Put plainly: Apoptosis induction, TUNEL staining. To be noted: 50 μg/mL, 48 hours, FIG. 11C. The format is cell-based, human. The protocol: as §3
Further, the apoptosis-inducing effects of the chelating agent of test group 6 or 10 on A549 cells were confirmed. 100 μg/mL of the chelating agent of test group 6 was added and 50 μg/mL of the chelating agent of test group 10 was added to the cells. After 48 hours of reaction, TUNEL staining was carried out similarly to the above.

Series [5] deals with A549 cells. Kind of series: Western blot of apoptosis-related factors. To be noted: A549 cell lysate; FIG. 12. In kind it is cell-based, human. The source says: (§4) The cell lysate of each type of cells treated with the chelating agents of test groups 6 and 10 was Western-blotted, and then an increase or a decrease in apoptosis-related factors in treated cells was confirmed using the indicated antibodies. […] Concentration-dependent apoptosis induction was also biochemically confirmed.
(In general: A western blot detects proteins with antibodies after separation by electrophoresis.)

Series [6] deals with HSC-2 cells. Kind of series: Western blot of apoptosis-related factors. The format is cell-based, human. To be noted: HSC-2 cell lysate; FIG. 12.
Excerpt: as §4

The test system of the next series is MCF-7 cells. Put plainly: Western blot of apoptosis-related factors. The format is cell-based, human. To be noted: MCF-7 cell lysate; FIG. 12.
Excerpt: as §4

Series [7] concerns subcutaneously-transplanted HCT116 cells. The format is in vivo, nude mice (BALB/c nu/nu). As for the experimental part: Next, the antitumor effects of the chelating agents of test groups 6 and 10 on HCT116-cell subcutaneous transplantation model mice, into which HCT116 cells had been subcutaneously transplanted, were confirmed. Mice prepared herein were nude mice (BALB/c nu/nu, 6 weeks old: Clea Japan Inc.). HCT116 cells were adjusted at 3×10^6/mouse, and then mixed with Matrigel (BD Biosciences) at 1:1. The thus obtained mixture was administered to mice, thereby preparing subcutaneous tumors. The dosage was 200 mg/kg/day (5 times/week administration). […] Tissue sections of HCT116 cells subcutaneously transplanted into the test group 10 administration group were prepared, and then hematoxylin-eosin (HE) staining, and TUNEL staining were performed by the above-mentioned method.

The format of series [8] is in vivo. Details: NEFA: unit not given here. To be noted: for Body weight: rats. The protocol:
To a negative control group (saline administration; n=6), the same amount of saline was administered. On day 14 after administration, determining life or death, measurement of body weight, physical items (respiration, body temperature, behavior, etc.) were observed. Moreover, blood samples were taken from each group, and the right kidneys and the livers were removed. Results were as depicted in FIG. 5A to 5C and Tables 4 to 9.

For another series, the system named is P. gingivalis Pg W83. Put plainly: Antibacterial activity, turbidity and ATP assay. To be noted: anaerobic culture 37° C., 18 hours, OD595 nm; FIG. 8. In kind it is cell-based, Porphyromonas gingivalis. The protocol:
A bacterial strain of one of periodontopathic bacteria, gram-negative bacillus, P. gingivalis, used herein was Pg W83. With the use of a liquid medium prepared by adding the chelating agent of each test group to a modified GAM bouillon medium, anaerobic culture (Anaeropack.anaerobic) was performed at 37° C. for 18 hours. Turbidity was found from optical density (OD595 nm). Results were as depicted in FIG. 8.

Series [9] relates to human influenza virus PR8 [A/PUERTORICO/8/34 (H1N1)]. Kind of series: Suppression of viral infection of MDCK cells. The format is cell-based. To be noted: 48 hours. As for the experimental part:
MDCK cells (canine renal tubule epithelial cells) were infected with a human influenza virus, and then an effect of suppressing the viral infection of MDCK cells was confirmed. Specifically, PR8 [A/PUERTORICO/8/34 (H1N1)] was adjusted at TCID50=2.81×10^6/mL as the influenza virus, the viral liquid and an equivalent amount of the chelating agent of test group 10 (concentration: 100 μg/mL, 250 μg/mL, 500 μg/mL, or 1000 μg/mL) were mixed and then left to stand at room temperature for 30 minutes. The above-prepared viral liquid was added to MDCK cells. After 48 hours, cells were observed, living cells (specifically, non-infected cells) remaining on the bottom of the culture dish were observed under a microscope. Results were as depicted in FIG. 16A.

For series [10] the following is noted: mouse, in vivo, 300 mg/kg.
Protocol: To each of 6-week-old Jcl: ICR mice divided into a test group 6 administration group (n=3), a test group 9 administration group (n=3), and a test group 10 administration group (n=3), the chelating agent of each test group was administered at a dose of 300 mg/kg body weight via tail vein. To a positive control group (administration; n=4), deferoxamine mesylate was administered at a dose of 300 mg/kg body weight via tail vein. On day 7 after administration, determining life or death, and physical items (respiration, body temperature, behavior, etc.) were observed.
The mark [11] stands for this setting: rat blood, oral 200 mg/kg, day 14.
The mark [12] stands for this setting: rat blood, oral 1000 mg/kg, day 14.
[13] abbreviates: rat blood, oral 1000 mg/kg, day 14, 1000 mg/kg.

“And” between values parts separate entries of the source, which are not always exact repeats. Identical values can stand only once. “Also recorded” adds a separate entry of the source. Counter-ions that a name gives are not always drawn. Like-named read-outs stand apart in the source and are kept apart here.

For `Cl.O=C(O)[C@H](Cc1c[nH]cn1)NCc1ccc(O)c(O)c1O` [Test group 10], the “antitumor effects on MCF-7 (cell viability)” value in series [1] is given as “exhibit antitumor effects”. Moreover, the “antitumor effects on HSC-2 (cell viability)” value in series [2] was “exhibit antitumor effects”. The “apoptosis-inducing effects (TUNEL staining)” value (shortened to “apoptosis-inducing effects”) in the series with HSC-2 cells [3] is “green-stained cells indicating apoptosis were confirmed”. Besides, the “apoptosis-inducing effects” value in the series on HCT116 cells is reported as “green-stained cells indicating apoptosis were confirmed”. In addition, in the series with A549 cells [4], the “apoptosis-inducing effects” value is listed as “green-stained cells (FITC positive cells) indicating apoptosis were confirmed”. Also, the “PARP cleaved fragments and caspase-3-cleaved fragments (Western blot)” value in the series with A549 cells [5] is “PARP cleaved fragments and caspase-3-cleaved fragments were confirmed”. For the same compound, in the series on HSC-2 cells [6], the “PARP cleaved fragments and caspase-3-cleaved fragments (Western blot)” value was “PARP cleaved fragments and caspase-3-cleaved fragments were confirmed”. Moreover, the “PARP cleaved fragments and caspase-3-cleaved fragments (Western blot)” value with MCF-7 cells is “PARP cleaved fragments and caspase-3-cleaved fragments were confirmed”. Besides, the “in vivo apoptosis induction in tumor tissue sections (TUNEL staining)” value in series [7] (HCT116 subcutaneous tumor tissue, 200 mg/kg/day, FIG. 13B) is listed as “FITC-derived green-stained cell images indicating apoptosis induction were confirmed”. Besides, the body weight change result in [7] (mouse, in vivo, 200 mg/kg/day) is reported as “no change in body weight was observed”. For the same compound, the “in vivo antitumor effects” value in [7] (subcutaneously-transplanted HCT116 cells, nude mice, 200 mg/kg/day (5 times/week), FIGS. 13A, 14) was “exhibited antitumor effects”. For the same compound, in [8] (setting [11]), the ALP was determined as 603 IU/L, the ALT is reported as 33 IU/L, the AST was 61 IU/L and the BUN turned out to be 22.5 mg/dL. In series [8] (setting [11]), the CRE worked out at 0.37 mg/dL, the Ca is listed as 11.2 mg/dL, the GLU is recorded as 278 mg/dL and the K is reported as 6.1 mEQ/L. In series [8] (setting [11]), this compound had an LD of 53 IU/L, an NEFA of 111, a Na of 146 mEQ/L and a T-Bil of 0.06 mg/dL. Further, the TP in series [8] (setting [11]) is recorded as 5.5 g/dL. In series [8] (setting [12]), this compound showed an ALT of 25 IU/L and a CRE of 0.36 mg/dL. Besides, in series [8] (setting [13]), the ALP was 592 IU/L and 618 IU/L; the AST was 56 IU/L and 90 IU/L; the BUN was 24.6 mg/dL and 22.8 mg/dL; the Ca was 10.6 mg/dL and 10.5 mg/dL. In [8] (setting [13]), the GLU was 259 mg/dL and 187 mg/dL; the K was 4.8 mEQ/L and 4.9 mEQ/L; the Na is 142 mEQ/L and 143 mEQ/L; the TP is 5.4 g/dL and 5.7 g/dL. In addition, in series [8] (oral 200 mg/kg), the Body weight is 170.83 g. For the same compound, the Body weight in series [8] (oral 1000 mg/kg, 1000 mg/kg) is 170.73 g and 185.29 g. In addition, in the series on P. gingivalis Pg W83, the “antimicrobial effects on P. gingivalis (turbidity)” value was “exhibited antimicrobial effects”. In addition, in series [9] (500 μg/mL), the “effect of suppressing viral infection” value is recorded as “observed to have the effect of suppressing viral infection”.

In the case of `CC(=O)N(O)CCCCCNC(=O)CCC(=O)N(O)CCCCCNC(=O)CCC(=O)N(O)CCCCCN` [deferoxamine mesylate, Deferoxamine mesylate], in series [9] (500 μg/mL or 1000 μg/mL, listed as Desferal), the “effect of suppressing viral infection” value is listed as “the effect of suppressing viral infection was not observed; also recorded: unable to inhibit viral infection”. In [10], the life or death entry is given as “died immediately after administration”.

Source of the values: patent US20200163938A1, “PHARMACEUTICAL COMPOSITION COMPRISING IRON CHELATOR EXHIBITING ANTITUMOR ACTIVITY, ANTIBACTERIAL ACTIVITY AND/OR ANTIVIRUS ACTIVITY, AND HAVING REDUCED SIDE EFFECTS” (priority 2017, published 2020).
